In patent US20180353457A1, “ABIETANE DITERPENOID 7-ACETOXYROYLEANONES FOR USE IN CANCER TREATMENT” (University of South Carolina, priority 2017, published 2018):

Columns and labels:
[1] = system: A498 (renal cancer) cells; assay: NCI-60 five dose screen, A498; conditions: Homo sapiens, A498, read-out: LC50
[2] = system: DU-145 (prostate cancer) cells; assay: NCI-60 five dose screen, DU-145; conditions: Homo sapiens, DU-145, read-out: LC50
[3] = system: SF-295 (CNS cancer) cells; assay: NCI-60 five dose screen, SF-295; conditions: Homo sapiens, SF-295, read-out: LC50
[4] = system: HOP-92 (non-small cell lung cancer) cells; assay: NCI-60 five dose screen, HOP-92; conditions: Homo sapiens, HOP-92, read-out: LC50
[5] = system: OVCAR-3 (ovarian cancer) cells; assay: NCI-60 five dose screen, OVCAR-3; conditions: Homo sapiens, OVCAR-3, read-out: LC50
[6] = system: RXF 393 (renal cancer) cells; assay: NCI-60 five dose screen, RXF 393; conditions: Homo sapiens, RXF 393, read-out: LC50
[7] = system: SK-MEL-5 (melanoma) cells; assay: NCI-60 five dose screen, SK-MEL-5; conditions: Homo sapiens, SK-MEL-5, read-out: LC50
[8] = system: COLO 205 (colon cancer) cells; assay: NCI-60 five dose screen, COLO 205; conditions: Homo sapiens, COLO 205, read-out: LC50
[9] = system: HCC-2996 (colon cancer) cells; assay: NCI-60 five dose screen, HCC-2996; conditions: read-out: LC50
[10] = system: NCI-H522 (non-small cell lung cancer) cells; assay: NCI-60 five dose screen, NCI-H522; conditions: Homo sapiens, NCI-H522, read-out: LC50
[11] = system: MDA-MB-468 (breast cancer) cells; assay: NCI-60 five dose screen, MDA-MB-468; conditions: Homo sapiens, MDA-MB-468, read-out: LC50
[12] = system: MDA-MB-435 (melanoma) cells; assay: NCI-60 five dose screen, MDA-MB-435; conditions: Homo sapiens, MDA-MB-435, read-out: LC50

Structure (SMILES): COc1cccc2c1C(=O)c1c(O)c3c(c(O)c1C2=O)C[C@@](O)(C(=O)CO)C[C@@H]3O[C@H]1C[C@H](N)[C@H](O)[C@H](C)O1 [Doxorubicin, doxorubicin, reference compound]
- CC50 [1]: 3.72 µM
- CC50 [2]: 23.4 µM
- CC50 [3]: 19.1 µM
- CC50 [4]: 20.9 µM
- CC50 [5]: 23.4 µM
- CC50 [6]: 4.79 µM
- CC50 [7]: 1.62 µM
- CC50 [8]: 4.9 µM
- CC50 [9]: 6.76 µM
- CC50 [10]: 9.33 µM
- CC50 [11]: 2.45 µM
- CC50 [12]: 2.88 µM
